The structures appear in SMILES notation.

The target of the experiment is T1, MAPKAPK5 (Homo sapiens, UniProt Q8IW41).
T1 sequence (Q8IW41 1-471 isoform Q8IW41-2): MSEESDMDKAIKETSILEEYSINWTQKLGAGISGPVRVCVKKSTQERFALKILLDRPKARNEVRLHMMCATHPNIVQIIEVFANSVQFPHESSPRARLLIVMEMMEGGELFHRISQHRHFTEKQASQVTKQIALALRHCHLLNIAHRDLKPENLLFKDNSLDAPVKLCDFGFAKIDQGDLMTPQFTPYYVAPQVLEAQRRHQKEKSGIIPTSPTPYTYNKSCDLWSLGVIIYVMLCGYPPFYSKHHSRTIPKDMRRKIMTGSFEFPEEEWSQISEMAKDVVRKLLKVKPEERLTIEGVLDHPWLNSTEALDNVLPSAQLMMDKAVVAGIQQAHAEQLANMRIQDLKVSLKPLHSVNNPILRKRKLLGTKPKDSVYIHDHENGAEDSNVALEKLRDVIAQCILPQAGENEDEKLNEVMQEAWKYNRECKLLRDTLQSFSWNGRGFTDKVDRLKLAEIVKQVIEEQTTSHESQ
In words: MAPKAP-K5 FlashPlate kinase assay (33P-ATP). The experiment is classed as biochemical. To be noted: 0.6 μM ATP, 30 minutes at room temperature. As to the method:
3 μM MAPKAP-K5 peptide substrate
As to `NC(=O)c1cc(-c2cnc(NC3CCN(Cc4ccccc4)C3)c3nccn23)co1` (single isomer, unassigned) [Example 17, 4-[8-(1-BENZYL-PYRROLIDIN-3-YLAMINO)-IMIDAZO[1,2-A]PYRAZIN-5-YL]-FURAN-2-CARBOXYLIC ACID AMIDE], the IC50 (as a rule, the concentration that inhibits the measured activity by half) is over 1000 nM. The same measure for `O=C1NCc2cc(-c3cnc(NC4CCCCC4)c4nccn34)ccc21` [Example 1, 5-(8-(cyclohexylamino)imidazo[1,2-a]pyrazin-5-yl)isoindolin-1-one]: 101 to 500 nM; for `NC(=O)c1cc(-c2cnc(NC3CCC3)c3ncnn23)co1` [Example 2, 4-(8-(cyclobutylamino)-[1,2,4]triazolo[1,5-a]pyrazin-5-yl)furan-2-carboxamide]: 101 to 500 nM. The figure for `NC(=O)c1cc(-c2cnc(NC3CCN(Cc4ccccc4)C3)c3ncnn23)co1` (stereo not drawn) [Example 4, 4-[8-(1-Benzyl-pyrrolidin-3-ylamino)-[1,2,4]triazolo[1,5-a]pyrazin-5-yl]-furan-2-carboxylic acid amide] is 501 to 1000 nM; for `O=C1NCc2cc(-c3cnc(NC4CCC4)c4nccn34)ccc21` [Example 5, 5-(8-(CYCLOBUTYLAMINO)IMIDAZO[1,2-A]PYRAZIN-5-YL)ISOINDOLIN-1-ONE] it is 101 to 500 nM; for `NC(=O)c1cc(-c2cnc(NC3CCC3)c3nccn23)co1` [Example 6, 4-(8-(CYCLOBUTYLAMINO)IMIDAZO[1,2-A]PYRAZIN-5-YL)FURAN-2-CARBOXAMIDE] it is 101 to 500 nM. The same measure for `NC(=O)c1cc(-c2cnc(NC3CCCC3)c3nccn23)co1` [Example 7, 4-(8-(CYCLOPENTYLAMINO)IMIDAZO[1,2-A]PYRAZIN-5-YL)FURAN-2-CARBOXAMIDE]: 501 to 1000 nM; for `CC(C)(C)OC(=O)N1CCC(Nc2ncc(-c3ccc4c(c3)CNC4=O)n3ncnc23)CC1` [Example 12, TERT-BUTYL 4-(5-(1-OXOISOINDOLIN-5-YL)-[1,2,4]TRIAZOLO[1,5-A]PYRAZIN-8-YLAMINO)PIPERIDINE-1-CARBOXYLATE]: 501 to 1000 nM.

`O=C1NCc2cc(-c3cnc(NC4CC4)c4ncnn34)ccc21` [Example 14, 5-(8-(CYCLOPROPYLAMINO)-[1,2,4]TRIAZOLO[1,5-A]PYRAZIN-5-YL)ISOINDOLIN-1-ONE] had an IC50 of 101 to 500 nM.

`O=C1NCc2cc(-c3cnc(NC4CCC(O)CC4)c4ncnn34)ccc21` (stereo not drawn) [Example 15, 5-(8-(4-HYDROXYCYCLOHEXYLAMINO)-[1,2,4]TRIAZOLO[1,5-A]PYRAZIN-5-YL)ISOINDOLIN-1-ONE]: the IC50 is 101 to 500 nM. The same measure for `CC(C)(C)OC(=O)NC1CCC(Nc2ncc(-c3ccc4c(c3)CNC4=O)n3ncnc23)CC1` (stereo not drawn) [Example 16, TERT-BUTYL 4-(5-(1-OXOISOINDOLIN-5-YL)-[1,2,4]TRIAZOLO[1,5-A]PYRAZIN-8-YLAMINO)CYCLOHEXYLCARBAMATE]: 501 to 1000 nM. The same measure for `NC(=O)c1cc(-c2cnc(NC3CCN(Cc4ccccc4)CC3)c3ncnn23)co1` [Example 18, 4-[8-(1-BENZYL-PIPERIDIN-4-YLAMINO)-[1,2,4]TRIAZOLO[1,5-A]PYRAZIN-5-YL]-FURAN-2-CARBOXYLIC ACID AMIDE]: over 1000 nM.

Values taken from US8138193B2, “Fused pyrazine compounds useful for the treatment of degenerative and inflammatory diseases” (Janssen Pharmaceutica N.V., priority 2007, dated 2012).
